Laboratory results published in PMC6153936, “Bisarylureas Based on 1H-Pyrazolo[3,4-d]pyrimidine Scaffold as Novel Pan-RAF Inhibitors with Potent Anti-Proliferative Activities: Structure-Based Design, Synthesis, Biological Evaluation and Molecular Modelling Studies” (Molecules : A Journal of Synthetic Chemistry and Natural …, 2017).

Assays:
A375 = test: MTT anti-proliferative assay, A375; format: cell-based; settings: Homo sapiens, A-375, 48 h
Experimental: (§1) All cell lines were purchased from Cell Bank of China Science Academy (Shanghai, China). All chemicals and solvents were purchased from Sigma-Aldrich (St. Louis, MO, USA) or Gibco (Gibco BRL, Grand Island, NY, USA). The PC-3 and A375 cell lines was maintained in Dulbecco's modified eagle (DEME) medium supplement with 10% fetal bovine serum (FBS) and 1% penicillin–streptomycin. The others were cultured in Roswell Park Memorial Institute (RPMI) 1640 medium supplement with 10% fetal bovine serum (FBS) and 1% penicillin–streptomycin. Approximately 5 × 10^3 cells, suspended in medium, were plated into each well of a 96-well plate and grown at 37 °C in a humidified atmosphere with 5% CO2 for 24 h. The following day, various concentrations of tested compounds were added to the culture medium and incubated for 48 h. Fresh MTT was added to each well at the terminal concentration of 5 mg/mL in phosphate buffered saline (PBS), and incubated with cells at 37 °C for 4 h. The formazan crystals in each well were dissolved in 150 μL DMSO, and the absorbency at 570 nm was measured with an enzyme-linked immunosorbent assay plate reader. All of the compounds were tested three times in each of the cell lines.

PC-3 = test: MTT anti-proliferative assay, PC-3; format: cell-based, human; settings: for IC50: Homo sapiens, PC-3, MTT, 48 h; for fold improvement in activity compared to Sorafenib, PC-3: PC-3, IC50 ratio to Sorafenib
Experimental: as §1

[1] = MTT cytotoxic assay, normal cell line MDCK; settings: dog, MDCK cells (normal cell line)
Experimental: as §1

A549 = test: MTT anti-proliferative assay, A549; format: cell-based, human; settings: for IC50: Homo sapiens, A549, MTT, 48 h
Experimental: as §1

HT-29 = test: MTT anti-proliferative assay, HT-29; format: cell-based; settings: Homo sapiens, 48 h
Experimental: as §1

BRAF^V600E = target: T1, BRAF^V600E (Homo sapiens, UniProt P15056, V600E); test: BRAF^V600E kinase inhibition, Z'-LYTE; format: biochemical; settings: for inhibition at 0.1 µM: 100 nM; for IC50: ten concentrations 1000 to 0.0508 nM, two independent experiments
T1 construct: purchased Life Technologies
T1 sequence (P15056 whole entry V600E): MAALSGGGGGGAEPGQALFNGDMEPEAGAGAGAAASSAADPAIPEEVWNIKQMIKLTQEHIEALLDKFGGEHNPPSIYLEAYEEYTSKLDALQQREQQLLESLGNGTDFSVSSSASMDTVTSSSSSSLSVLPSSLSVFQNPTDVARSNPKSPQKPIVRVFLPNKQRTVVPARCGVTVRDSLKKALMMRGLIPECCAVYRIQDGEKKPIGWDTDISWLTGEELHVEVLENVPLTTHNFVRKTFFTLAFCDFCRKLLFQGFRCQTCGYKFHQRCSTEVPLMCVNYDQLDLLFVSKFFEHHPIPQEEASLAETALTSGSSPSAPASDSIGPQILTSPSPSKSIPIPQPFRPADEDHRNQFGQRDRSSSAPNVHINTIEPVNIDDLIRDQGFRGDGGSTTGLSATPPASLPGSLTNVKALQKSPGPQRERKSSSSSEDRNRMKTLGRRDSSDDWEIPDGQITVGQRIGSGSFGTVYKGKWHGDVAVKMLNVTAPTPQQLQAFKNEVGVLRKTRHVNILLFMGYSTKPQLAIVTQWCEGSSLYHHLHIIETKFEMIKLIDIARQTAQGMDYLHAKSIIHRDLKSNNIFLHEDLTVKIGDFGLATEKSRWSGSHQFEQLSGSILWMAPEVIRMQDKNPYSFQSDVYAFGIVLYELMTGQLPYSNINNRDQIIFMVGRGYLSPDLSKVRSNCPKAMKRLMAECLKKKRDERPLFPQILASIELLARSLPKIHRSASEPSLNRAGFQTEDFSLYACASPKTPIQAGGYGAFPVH
Experimental: The experiments were performed according to the instructions of the manufacturer, and single point concentration testing with two independent data points (n = 2). […] The IC50 values were calculated from the inhibition curves from two separate experiments.

in vitro = settings: dog
Experimental: as §1

[2] = 1000 nM, average of two independent experiments
[3] = average of two independent experiments

| Structure (SMILES) | IC50 (A375) [µM] | melting point [°C] | IC50 (PC-3) [µM] | IC50 at 48 h [1] [µM] | IC50 (A549) [µM] | IC50 (HT-29) [µM] | inhibition at 1 µM (BRAF^V600E; [2]) [%] | IC50 at 48 h (in vitro) [µM] | inhibition at 0.1 µM (BRAF^V600E; [3]) [%] | fold improvement in activity compared to Sorafenib, PC-3 (PC-3) [fold] | fold improvement compared to Sorafenib, A549 (A549; A549, IC50 ratio to Sorafenib) [fold] | IC50 (BRAF^V600E) [µM] | BRAF^V600E (%) inhibition at 1000 nM (BRAF^V600E; [2]) |
| --- | --- | --- | --- | --- | --- | --- | --- | --- | --- | --- | --- | --- | --- |
| N#Cc1cccc(NC(=O)Nc2ccc(Oc3ncnc4[nH]ncc34)cc2)c1 [Compound 1p, 1-(4-((1H-Pyrazolo[3,4-d]pyrimidin-4-yl)oxy)phenyl)-3-(3-cyanophenyl)urea] | 61.8 | 235.2 to 237.4 | 30.9 | > 80 | 59.5 | 39.4 | 48 |  |  |  |  |  |  |
| Cc1cccc(NC(=O)Nc2ccc(Oc3ncnc4[nH]ncc34)cc2)c1C [Compound 1h, 1-(4-((1H-Pyrazolo[3,4-d]pyrimidin-4-yl)oxy)phenyl)-3-(2,3-dimethylphenyl)urea] | > 80 | 250.4 to 252.3 | 11.7 |  | > 80 | > 80 | 27 | > 80 |  |  |  |  |  |
| O=C(Nc1ccc(Oc2ncnc3[nH]ncc23)cc1)Nc1ccc(Cl)c(C(F)(F)F)c1 [Compound 1a, 1-(4-((1H-Pyrazolo[3,4-d]pyrimidin-4-yl)oxy)phenyl)-3-(4-chloro-3-(trifluoromet-hyl)phenyl)urea] | 29.3 |  | 19.5 |  | 19.8 | > 80 | 90 | 17.8 | 37 |  |  |  |  |
| O=C(Nc1ccc(Oc2ncnc3[nH]ncc23)cc1)Nc1cccc(Br)c1 [Compound 1s, 1-(4-((1H-Pyrazolo[3,4-d]pyrimidin-4-yl)oxy)phenyl)-3-(3-bromophenyl)urea] | 65.4 | 234.5 to 237 | 5.52 | > 80 | > 80 | > 80 | 71 |  | 10 |  |  |  |  |
| O=C(Nc1ccc(Oc2ncnc3[nH]ncc23)cc1)Nc1cccc([N+](=O)[O-])c1 [Compound 1m, 1-(4-((1H-Pyrazolo[3,4-d]pyrimidin-4-yl)oxy)phenyl)-3-(3-nitrophenyl)urea] | 64 | 229.2 to 231.4 | 23.4 | > 80 | > 80 | 31.7 | 62 |  | 3 |  |  |  |  |
| Cc1ccc(Cl)c(NC(=O)Nc2ccc(Oc3ncnc4[nH]ncc34)cc2)c1 [Compound 1f, 1-(4-((1H-Pyrazolo[3,4-d]pyrimidin-4-yl)oxy)phenyl)-3-(2-chloro-5-methylphenyl)urea] | 62.3 | 230.2 to 232.4 | 1.12 | > 80 | 5.24 | 61.7 | 37 |  |  | 12 | 2 |  |  |
| Cc1ccc(NC(=O)Nc2ccc(Oc3ncnc4[nH]ncc34)cc2)cc1C [Compound 1t, 1-(4-((1H-Pyrazolo[3,4-d]pyrimidin-4-yl)oxy)phenyl)-3-(3,4-dimethylphenyl)urea] | 75.2 | 249.9 to 250.6 | > 80 | > 80 | > 80 | > 80 | 89 |  | 28 |  |  |  |  |
| O=C(Nc1ccc(Oc2ncnc3[nH]ncc23)cc1)Nc1cc(F)cc(C(F)(F)F)c1 [Compound 1j, 1-(4-((1H-Pyrazolo[3,4-d]pyrimidin-4-yl)oxy)phenyl)-3-(3-fluoro-5-(trifluoromethyl)phenyl)urea] | 30.4 | 249.2 to 250.6 | 46 | > 80 | 60.3 | 50.7 | 67 |  | 37 |  |  |  |  |
| Cc1cccc(NC(=O)Nc2ccc(Oc3ncnc4[nH]ncc34)cc2)c1 [Compound 1b, 1-(4-((1H-Pyrazolo[3,4-d]pyrimidin-4-yl)oxy)phenyl)-3-(m-tolyl)urea] | > 80 | 227.4 to 230 | > 80 | > 80 | 75.6 | > 80 | 46 |  |  |  |  |  |  |
| O=C(Nc1ccc(Cl)cc1)Nc1ccc(Oc2ncnc3[nH]ncc23)cc1 [Compound 1d, 1-(4-((1H-Pyrazolo[3,4-d]pyrimidin-4-yl)oxy)phenyl)-3-(4-chlorophenyl)urea] | 78.8 |  | 18.4 | > 80 | > 80 | > 80 | 51 |  |  |  |  |  |  |
| COC(=O)c1cccc(NC(=O)Nc2ccc(Oc3ncnc4[nH]ncc34)cc2)c1 [Compound 1q, Methyl-3-(3-(4-((1H-pyrazolo[3,4-d]pyrimidin-4-yl)oxy)phenyl)ureido)benzoate] | > 80 | 217.3 to 220.1 | 22.5 | > 80 | > 80 | > 80 | 32 |  |  |  |  |  |  |
| O=C(Nc1ccc(Oc2ncnc3[nH]ncc23)cc1)Nc1cc(C(F)(F)F)ccc1Cl [Compound 1i, 1-(4-((1H-Pyrazolo[3,4-d]pyrimidin-4-yl)oxy)phenyl)-3-(2-chloro-5-(trifluoromethyl)phenyl)urea] | 26.9 | 239.2 to 240.3 | 1.12 | > 80 | 60.8 | 62.4 | 83 |  | 52 | 12 |  |  |  |
| Cn1ncc2c(Oc3ccc(NC(=O)Nc4cccc(Cl)c4)cc3)ncnc21 [Compound 1u, 1-(3-Chlorophenyl)-3-(4-((1-methyl-1H-pyrazolo[3,4-d]pyrimidin-4-yl)oxy)phenyl)urea] | 13.2 | 309.8 to 312 | 68.9 | > 80 | > 80 | > 80 | 93 |  | 61 |  |  | 0.0381 |  |
| CNC(=O)c1cc(Oc2ccc(NC(=O)Nc3ccc(Cl)c(C(F)(F)F)c3)cc2)ccn1 [Sorafenib, reference compound] | 6.81 |  | 13.8 | 14.7 | 13.7 | 8.12 |  |  |  |  |  |  |  |
| CCc1cccc(NC(=O)Nc2ccc(Oc3ncnc4[nH]ncc34)cc2)c1 [Compound 1l, 1-(4-((1H-Pyrazolo[3,4-d]pyrimidin-4-yl)oxy)phenyl)-3-(3-ethylphenyl)urea] | 75.6 | 219.5 to 221.5 | > 80 | > 80 | 19.9 | 71.2 | 69 |  | 60 |  |  | 0.0513 |  |
| O=C(Nc1ccc(Oc2ncnc3[nH]ncc23)cc1)Nc1cccc(Cl)c1 [Compound 1g, 1-(4-((1H-Pyrazolo[3,4-d]pyrimidin-4-yl)oxy)phenyl)-3-(3-chlorophenyl)urea] | > 80 | 234.8 to 236 | > 80 | > 80 | 70.1 | > 80 | 54 |  |  |  |  |  |  |
| O=C(Nc1ccccc1)Nc1ccc(Oc2ncnc3[nH]ncc23)cc1 [Compound 1e, 1-(4-((1H-Pyrazolo[3,4-d]pyrimidin-4-yl)oxy)phenyl)-3-phenylurea] | > 80 | 247.3 to 249.2 | > 80 |  | > 80 | > 80 | 1 | > 80 |  |  |  |  | no inhibitory activity |
| CSc1cccc(NC(=O)Nc2ccc(Oc3ncnc4[nH]ncc34)cc2)c1 [Compound 1o, 1-(4-((1H-Pyrazolo[3,4-d]pyrimidin-4-yl)oxy)phenyl)-3-(3-(methylthio)phenyl)urea] | > 80 | 227.3 to 228.4 | 5.34 | > 80 | 30 | > 80 | 69 |  | 29 |  |  |  |  |
| O=C(Nc1ccc(Oc2ncnc3[nH]ncc23)cc1)Nc1cc(C(F)(F)F)ccc1F [Compound 1n, 1-(4-((1H-Pyrazolo[3,4-d]pyrimidin-4-yl)oxy)phenyl)-3-(2-fluoro-5-(trifluoromethyl)phenyl)urea] | 5.39 |  | 40.3 | 23.1 | 32.1 | 27.8 | 87 |  | 30 |  |  |  |  |
| O=C(Nc1ccc(Oc2ncnc3[nH]ncc23)cc1)Nc1ccc(Cl)c(Cl)c1 [Compound 1c, 1-(4-((1H-Pyrazolo[3,4-d]pyrimidin-4-yl)oxy)phenyl)-3-(3,4-dichlorophenyl)urea] | 29.7 | 245 to 247.2 | 11.2 | 35.5 | 16.2 | 15.2 | 83 |  | 27 |  |  |  |  |
| Cc1ccc([N+](=O)[O-])c(NC(=O)Nc2ccc(Oc3ncnc4[nH]ncc34)cc2)c1 [Compound 1r, 1-(4-((1H-Pyrazolo[3,4-d]pyrimidin-4-yl)oxy)phenyl)-3-(5-methyl-2-nitrophenyl)urea] | > 80 | 359.7 to 360.2 | > 80 | > 80 | > 80 | > 80 | 22 |  |  |  |  |  |  |
